This note sets out measurements from patent publication US10939684B2, “Preparation of sulfonamide-containing antimicrobials and substrate treating compositions of sulfonamide-containing antimicrobials” (NANO SAFE COATINGS INCORPORATED, priority 2015, dated 2021).

“Also recorded” adds a separate entry of the source.

This test has as its system Arthrobacter spp. The test is described as follows: Large-droplet inoculation method, antimicrobial efficacy at solid-air interfaces. The class given is cell-based. The following applies: for Average: average of A-C; for A (cfu): replicate A; for B (cfu): replicate B; for C (cfu): replicate C. The text has this: Large-droplet inoculation method (Ronan E. et al, Biofouling 2013, 29, 1087-1096) Many pathogens are able to remain viable during extended periods of desiccation on inanimate surfaces. Long-term survival of pathogens in the inanimate environment pose a significant risk for infection transmission and contamination in high-risk environments such as hospital rooms or food-processing plants. The large-droplet inoculation method was developed to simulate the deposition of bacterial species onto exposed surfaces and to determine the ability of these cells to survive desiccation.
For these tests, small surface coupons were first coated with the antimicrobial using the method described above. Bacterial test species were grown overnight in a shaking incubator and cultures
were washed twice to replace the growth media with sterile water. 100 μL aliquots of the prepared culture were then inoculated onto multiple coated surfaces and allowed to air-dry within a biological safety cabinet. Drying typically occurred 2-3 hours after inoculation, and surviving cells were enumerated immediately and 24 hours after drying. For enumeration, inoculated coupons were sacrificed in triplicate and placed inside separate tubes containing 5 mL of a 0.9% saline collection liquid. Each coupon was agitated vigorously for 1 minute with a bench-top vortex to transfer cells from the test surface to the collection liquid. Plate counts were then performed on serial dilutions of the collection liquid, and colony counts from triplicate treated surfaces were averaged and compared to colony counts from tests of untreated control surfaces carried out in parallel.
A range of bacterial species were used in these tests. Arthrobacter spp., a gram-positive lab strain originally isolated from indoor air was used in the bulk of the testing, as it is known to be highly resistant to desiccation and therefore was used as a model for desiccation-tolerant pathogens. Efficacy tests were also carried out against, for example, gram-negative Escherichia coli (E. coli) and gram-positive Staphylococcus aureus (S. aureus), since they all contain pathogenic strains and have been implicated in major nosocomial outbreaks. […] The following are the tabulated bacterial reduction data: […]

The mark [1] stands for this setting: treated cotton, compared to untreated control (FIG. 3, FIG. 4).
Setting [2] is: treated cotton, 3 hours, load 6.10E+07.
[3] abbreviates: treated cotton, 24 hours, load 6.10E+07.
The mark [4] stands for this setting: treated polyethylene, 3 hours, load 2.70E+07.
Setting [5] is: treated polyethylene, 24 hours, load 2.70E+07.
[6] abbreviates: treated cotton, 3 hours, load 1.28E+08.
Where [7] appears, read: treated cotton, 3 hours, load 4.04E+07.
The mark [8] stands for this setting: treated cotton, 24 hours, load 1.28E+08.
Where [9] appears, read: treated cotton, 24 hours, load 4.04E+07.

As for `C[N+](C)(CCCNS(=O)(=O)c1cccc2ccccc12)CCCOc1ccc(C(=O)c2ccccc2)cc1.[Br-]` [3-(4-benzoylphenoxy)-N,N-dimethyl-N-(3-(naphthalene-1-sulfonamido)propyl)propan-1-aminium bromide], the “activity against Arthrobacter spp. (in words)” value (“activity” for short) (treated polyethylene coupons, compared to untreated control (FIG. 5)) is “excellent activity”.

Turning to `CO[Si](CCC[N+](C)(C)CCCNS(=O)(=O)c1ccccc1)(OC)OC.[Cl-]` [Example 1a, N,N-dimethyl-3-(phenylsulfonamido)-N-(3-(trimethoxysilyl)propyl)propan-1-aminium chloride], under setting [1], the “activity” value is “eradicated within three hours; also recorded: excellent activity”. Further, under setting [2], the Average is on record as 0.00E+00 cfu, the “A (cfu)” value is reported as 0.00E+00 cfu, the “B (cfu)” value is 0.00E+00 cfu and the “C (cfu)” value turned out to be 0.00E+00 cfu. In addition, under setting [3], the Average is 0.00E+00 cfu, the “A (cfu)” value turned out to be 0.00E+00 cfu, the “B (cfu)” value stood at 0.00E+00 cfu and the “C (cfu)” value was 0.00E+00 cfu.

In the case of `C[N+](C)(CCCNS(=O)(=O)c1ccccc1)CCCOc1ccc(C(=O)c2ccccc2)cc1.[Br-]` [Example 1c, 3-(4-benzoylphenoxy)-N,N-dimethyl-N-(3-(phenylsulfonamido)propyl) propan-1-aminium bromide], the “activity” value (treated polyethylene coupons, compared to untreated control (FIG. 5), listed as 3-(4-benzoylphenoxy)-N,N-dimethyl-N-(3-(phenyl sulfonamido)propyl)propan- 1-amin) is reported as “excellent activity”. In addition, for the setting “treated polyethylene coupons, compared to untreated control (FIG. 5), listed as 3-(4-benzoylphenoxy)-N,N-dimethyl-N-(3-(phenylsulfonamido)propyl)propan-1-aminiu”, the “activity” value is given as “eradicated within three hours”. Besides, under setting [4], the Average is reported as 0.00E+00 cfu, the “A (cfu)” value is reported as 0.00E+00 cfu, the “B (cfu)” value worked out at 0.00E+00 cfu and the “C (cfu)” value was 0.00E+00 cfu. Besides, under setting [5], the Average is 0.00E+00 cfu, the “A (cfu)” value turned out to be 0.00E+00 cfu, the “B (cfu)” value amounted to 0.00E+00 cfu and the “C (cfu)” value turned out to be 0.00E+00 cfu.

Take `CO[Si](CCC[N+](C)(C)CCCNS(=O)(=O)c1ccc(C)cc1)(OC)OC.[Cl-]` [Example 2a, N,N-dimethyl-3-(4-methylphenylsulfonamido)-N-(3-(trimethoxysilyl)propyl) propan-1-aminium chloride]: the “activity” value is “excellent activity” (treated cotton, compared to untreated control (FIG. 3, FIG. 4), listed as N,N-dimethyl-3-(4-methylphenyl sulfonamido)-N-(3-(trimethoxysilyl)propyl)propan-); “excellent activity” (treated cotton, compared to untreated control (FIG. 3, FIG. 4), listed as N,N-dimethyl-3-(4-methylphenylsulfonamido)-N-(3-(trimethoxysilyl) propyl)propan-); “eradicated within three hours” (treated cotton, compared to untreated control (FIG. 3, FIG. 4), listed as N,N-dimethyl-3-(4-methylphenylsulfonamido)-N-(3-(trimethoxysilyl)propyl)propan-1). For the same compound, the Average was determined as 0.00E+00 cfu under setting [6], 0.00E+00 cfu under setting [7], 0.00E+00 cfu under setting [8] and 0.00E+00 cfu under setting [9]. Also, the “A (cfu)” value is 0.00E+00 cfu under setting [6], 0.00E+00 cfu under setting [7], 0.00E+00 cfu under setting [8] and 0.00E+00 cfu under setting [9]. For the same compound, the “B (cfu)” value was determined as 0.00E+00 cfu under setting [6], 0.00E+00 cfu under setting [7], 0.00E+00 cfu under setting [8] and 0.00E+00 cfu under setting [9]. For the same compound, the “C (cfu)” value by setting is: under setting [6], 0.00E+00 cfu; under setting [7], 0.00E+00 cfu; under setting [8], 0.00E+00 cfu; under setting [9], 0.00E+00 cfu.

In the case of `CO[Si](CCC[N+](C)(C)CCCNS(=O)(=O)c1c(C)cc(C)cc1C)(OC)OC.[Cl-]` [Example 3a, N,N-dimethyl-3-(trimethoxysilyl)-N-(3-(2,4,6-trimethylphenylsulfonamido)propyl)propan-1-aminium chloride], the “activity” value (treated cotton, compared to untreated control (FIG. 3, FIG. 4), listed as N,N-dimethyl-3-(trimethoxysilyl)-N-(3-(2,4,6-trimethyl phenylsulfonamido)propyl)) is reported as “excellent activity”. Moreover, the “activity” value (treated cotton, compared to untreated control (FIG. 3, FIG. 4), listed as N,N-dimethyl-3-(trimethoxysilyl)-N-(3-(2,4,6-trimethylphenylsulfonamido)propyl)p) is recorded as “eradicated within three hours”. In addition, under setting [7], the Average turned out to be 0.00E+00 cfu, the “A (cfu)” value was 0.00E+00 cfu, the “B (cfu)” value is 0.00E+00 cfu and the “C (cfu)” value came to 0.00E+00 cfu. Besides, under setting [9], the Average amounted to 0.00E+00 cfu, the “A (cfu)” value was 0.00E+00 cfu, the “B (cfu)” value is on record as 0.00E+00 cfu and the “C (cfu)” value amounted to 0.00E+00 cfu.

On to `CO[Si](CCC[N+](C)(C)CCCNS(=O)(=O)c1cccc2ccccc12)(OC)OC.[Cl-]` [Example 5a, N,N-dimethyl-3-(naphthalene-1-sulfonamido)-N-(3-(trimethoxysilyl)propyl)propan-1-aminium chloride], for which, under setting [1], the “activity” value was “eradicated within three hours; also recorded: excellent activity”. Under setting [2], the Average turned out to be 0.00E+00 cfu, the “A (cfu)” value came to 0.00E+00 cfu, the “B (cfu)” value was determined as 0.00E+00 cfu and the “C (cfu)” value was determined as 0.00E+00 cfu. Also, under setting [3], the Average was determined as 0.00E+00 cfu, the “A (cfu)” value is on record as 0.00E+00 cfu, the “B (cfu)” value amounted to 0.00E+00 cfu and the “C (cfu)” value worked out at 0.00E+00 cfu.

`C[N+](C)(CCCNS(=O)(=O)c1cccc2ccccc12)CCCOc1ccc(C(=O)c2ccccc2)cc1.[Br-]` [Example 5c, 3-(4-benzoylphenoxy)-N,N-dimethyl-N-(3-(naphthalene-1-sulfonamido)propyl)propan-1-aminium bromide]: for the setting “treated polyethylene coupons, compared to untreated control (FIG. 5), listed as 3-(4-benzoylphenoxy)-N,N-dimethyl-N-(3-(naphthalene-1-sulfonamido)propyl)propan-”, the “activity” value is listed as “eradicated within three hours”. Besides, under setting [4], the Average is on record as 0.00E+00 cfu, the “A (cfu)” value is 0.00E+00 cfu, the “B (cfu)” value is 0.00E+00 cfu and the “C (cfu)” value is reported as 0.00E+00 cfu. In addition, under setting [5], the Average amounted to 0.00E+00 cfu, the “A (cfu)” value turned out to be 0.00E+00 cfu, the “B (cfu)” value turned out to be 0.00E+00 cfu and the “C (cfu)” value was 0.00E+00 cfu.
